Assay results from ChEMBL document CHEMBL5303304, “EUbOPEN Chemogenomics Library - IncuCyte” (2023).

Assays:
Assay type in all cases: toxicity, cell-based
Fibroblast = assay: Incucyte cell viability with human fibroblast; conditions: 10 µM, compound concentration 10 uM
U2OS = assay: Incucyte cell viability with U2OS; conditions: human, 10 µM, compound concentration 10 uM
HEK-293T = assay: Incucyte cell viability with HEK293T; conditions: human, 10 µM, compound concentration 10 uM
Also: unitless GR value; below 1 slowed growth and below 0 cell loss.

SMILES | Growth Rate (Fibroblast; 0 h, replicate number 2) | Growth Rate (Fibroblast; 6 h, replicate number 1) | Growth Rate (Fibroblast; 6 h, replicate number 2) | Growth Rate (Fibroblast; 12 h, replicate number 2) | Growth Rate (Fibroblast; 18 h, replicate number 2) | Growth Rate (Fibroblast; 24 h, replicate number 2) | Growth Rate (U2OS; 0 h, replicate number 1) | Growth Rate (U2OS; 6 h, replicate number 1) | Growth Rate (U2OS; 12 h, replicate number 1) | Growth Rate (U2OS; 12 h, replicate number 2) | Growth Rate (U2OS; 18 h, replicate number 1) | Growth Rate (U2OS; 24 h, replicate number 1) | Growth Rate (U2OS; 24 h, replicate number 2) | Growth Rate (HEK-293T; 6 h, replicate number 2) | Growth Rate (HEK-293T; 12 h, replicate number 1) | Growth Rate (HEK-293T; 12 h, replicate number 2) | Growth Rate (HEK-293T; 18 h, replicate number 1) | Growth Rate (HEK-293T; 18 h, replicate number 2) | Growth Rate (HEK-293T; 24 h, replicate number 1) | Growth Rate (HEK-293T; 24 h, replicate number 2) | further results
CCN1C(=O)N(c2c(F)c(OC)cc(OC)c2F)Cc2cnc3[nH]c(CN4CCOCC4)cc3c21 [PEMIGATINIB] | 0.11 | 0.04 | 0.12 | 0.45 | 0.53 | 0.49 | -0.31 | 0.58 | -0.36 | 0.07 | 0.5 | 0.62 | 0.19 | 0.25 | 0.76 | 0.59 | 0.68 | 0.33 | 0.57 | 0.3 | Growth Rate (Fibroblast; 12 h, replicate number 1): 0.42; Growth Rate (Fibroblast; 18 h, replicate number 1): 0.23; Growth Rate (Fibroblast; 24 h, replicate number 1): 0.19; Growth Rate (U2OS; 0 h, replicate number 2): -0.02; Growth Rate (U2OS; 6 h, replicate number 2): -0.01; Growth Rate (U2OS; 18 h, replicate number 2): 0.2; Growth Rate (HEK-293T; 0 h, replicate number 1): 0
Cc1cc(CN)cc(C)c1-c1ncn(C)c1-c1cncn1C.Cl |  | 0.96 | -0.33 | 0.59 | 0.77 | 0.86 |  |  |  | 0.69 |  |  |  |  |  |  | 0.98 |  |  |  | Growth Rate (Fibroblast; 0 h, replicate number 1): -1; Growth Rate (U2OS; 18 h, replicate number 2): 0.99; Growth Rate (HEK-293T; 0 h, replicate number 1): -0.38; Growth Rate (HEK-293T; 0 h, replicate number 2): 0.26
Clc1ccccc1C(c1ccccc1)(c1ccccc1)n1ccnc1 [CLOTRIMAZOLE] | 0.29 |  |  |  | 1 |  |  |  | 0.97 | 0.94 |  |  | 0.76 | 0.62 |  | 0.5 | 0.79 | 0.54 | 0.72 | 0.41 | Growth Rate (Fibroblast; 0 h, replicate number 1): 0.95; Growth Rate (Fibroblast; 18 h, replicate number 1): 0.54; Growth Rate (Fibroblast; 24 h, replicate number 1): 0.82; Growth Rate (U2OS; 0 h, replicate number 2): 0.7; Growth Rate (U2OS; 6 h, replicate number 2): 0.77; Growth Rate (U2OS; 18 h, replicate number 2): 0.81; Growth Rate (HEK-293T; 0 h, replicate number 1): 0.08; Growth Rate (HEK-293T; 0 h, replicate number 2): -0.96
CNC(=O)c1cccc(-c2ccc3c(N4CCOC[C@@H]4C)nc(N4CCOC[C@@H]4C)nc3n2)c1 [VISTUSERTIB] | -0.6 |  |  | 0.26 | 0.18 | 0.33 | 0.02 | 0.98 |  |  | 0.93 | 0.56 |  | -0.82 | -0.41 | -0.55 | -0.28 | -0.39 | -0.18 | -0.28 | Growth Rate (Fibroblast; 18 h, replicate number 1): 0.78; Growth Rate (Fibroblast; 24 h, replicate number 1): 0.66; Growth Rate (HEK-293T; 6 h, replicate number 1): -0.56
CC(=O)O[C@H]1C(=O)[C@@]2(C)[C@H]([C@H](OC(=O)c3ccccc3)[C@]3(O)C[C@H](OC(=O)[C@H](O)[C@@H](NC(=O)c4ccccc4)c4ccccc4)C(C)=C1C3(C)C)[C@]1(OC(C)=O)CO[C@@H]1C[C@@H]2O [PACLITAXEL] |  | -0.64 | -0.99 | -0.57 | -0.67 | -0.34 | -0.26 | -0.32 | -0.21 | -0.45 | -0.26 | -0.07 | -0.18 | -0.69 | -0.21 | -0.41 | -0.08 | -0.22 | 0.05 | -0.02 | Growth Rate (Fibroblast; 0 h, replicate number 1): -1; Growth Rate (Fibroblast; 12 h, replicate number 1): -0.7; Growth Rate (Fibroblast; 18 h, replicate number 1): -0.54; Growth Rate (Fibroblast; 24 h, replicate number 1): -0.39; Growth Rate (U2OS; 0 h, replicate number 2): -0.23; Growth Rate (U2OS; 6 h, replicate number 2): -0.43; Growth Rate (U2OS; 18 h, replicate number 2): -0.43; Growth Rate (HEK-293T; 6 h, replicate number 1): -0.33
C[C@@H]1CN(CC(=O)N2CC(C)(C)c3nc(CO)c(Cc4ccc(F)cc4)cc32)[C@@H](CN2CCOC[C@H]2C)CN1 [ASTX-660] | 0.14 |  |  |  |  |  |  |  |  |  |  | 0.98 |  |  |  |  | 0.97 |  | 0.89 |  | Growth Rate (HEK-293T; 0 h, replicate number 1): 0.18
CC[C@@]1(c2ccccc2)NC(=O)N(Cc2ccccc2)C1=O | 0.5 | -0.93 |  | 0.07 | 0.7 | 0.58 |  | 0.55 |  |  |  |  | 0.99 |  |  | 0.77 | 0.95 | 0.86 | 0.84 | 0.82 | Growth Rate (Fibroblast; 0 h, replicate number 1): 0.94; Growth Rate (U2OS; 0 h, replicate number 2): -0.81; Growth Rate (HEK-293T; 0 h, replicate number 2): 0.93
O=C(Nc1ccc(Oc2ccc(Cl)cc2)c(Cl)c1)c1cc(I)cc(I)c1O [RAFOXANIDE] | -0.93 | -0.56 |  |  |  |  | 0.6 | 0.57 | 0.92 | 0.74 | 0.88 |  |  | 0.49 | -0.61 | 0.91 | -0.55 |  | -0.48 |  | Growth Rate (Fibroblast; 12 h, replicate number 1): -1; Growth Rate (U2OS; 0 h, replicate number 2): -1; Growth Rate (HEK-293T; 6 h, replicate number 1): -0.37
Cc1ccc(NC(=O)c2ccc3c(c2)OCCO3)cc1NC(=O)c1ccc2nc(OCCN3CCCC3)ccc2c1 | -0.85 | -0.21 | -0.58 | -0.27 | -0.22 | -0.05 | 0.21 | 0.15 | -0.04 | 0.05 | -0.16 | -0.12 | -0.01 | -0.96 | -0.78 | -0.81 | -0.56 | -0.61 | -0.43 | -0.45 | Growth Rate (Fibroblast; 12 h, replicate number 1): -0.3; Growth Rate (Fibroblast; 18 h, replicate number 1): -0.2; Growth Rate (Fibroblast; 24 h, replicate number 1): -0.09; Growth Rate (U2OS; 6 h, replicate number 2): 0.35; Growth Rate (U2OS; 18 h, replicate number 2): -0.04; Growth Rate (HEK-293T; 6 h, replicate number 1): -0.91
O=C(CNC(=O)c1ccc(-c2ccccc2)cc1)NC1CCCc2ccccc21 (stereo not drawn) |  |  | 0.27 | 0.26 | 0.42 | 0.7 | 0.77 | 0.38 | 0.67 | 0.9 | 0.43 | 0.55 | 0.93 | 0.73 | -0.08 | 0.41 | 0.26 | 0.38 | 0.39 | 0.46 | Growth Rate (HEK-293T; 0 h, replicate number 2): -0.65; Growth Rate (HEK-293T; 6 h, replicate number 1): 0.23
